Measured values from US20110189310A1, “SMALL MOLECULE MODULATORS OF PRONGF UPTAKE” (priority 2008, published 2011).
Where two headings read alike, the source gives them in different places.

Experiments:
[1] = test system: Cultured rat SCG neurons; conditions: for effect on proNGF induced neuronal apoptosis (FIG. 1): 10 μM compound, 5 ng/ml proNGF, rat SCG neurons 7 DIV
Description: (§1) (A) Neuronal apoptosis was assessed morphologically by DAPI and TuJ1 double staining and (B) quantitated as percentage of SCG neuron apoptosis. […] Error bars represent S.E.M.
as §1, with “A recent collaborative study assessed the expression and biological actions of proNGF following seizure induced injury to central neurons. […] (A)” for “(A)”

[2] = cited from earlier work
[3] = human, in vivo; cited from earlier work
[4] = test system: dopaminergic neurons; conditions: one report; cited from earlier work
[5] = rat, in vivo, sc, 100 mg/kg
[6] = human, in vivo, cited from earlier work
[7] = mouse, in vivo; cited from earlier work
[8] = in vivo; cited from earlier work
[9] = monkey, in vivo; cited from earlier work

For `N[C@@H](Cc1ccc(O)c(O)c1)C(=O)O` [Levodopa], the “effect on proNGF induced neuronal apoptosis (FIG. 1)” value [1] is given as “blockade of proNGF induced neuronal apoptosis”, the “inhibition of apoptosis, dose dependence” value ([1]; proNGF-induced SCG neuronal cell death) is given as “dose dependent inhibition of apoptosis” and the “toxicity profile in human” value ([2]; human) is given as “excellent toxicity profiles in human”. The “CSF level of major metabolite homovanillic acid” value [3] was 0.8 to 1 µM and the “L-dopa concentrations required for toxicity to dopaminergic neurons” value [4] was 100 to 500 µM.
In the case of `O=C([O-])CC(O)(CC(=O)[O-])C(=O)[O-].[Li+].[Li+].[Li+]` [Lithium Citrate], the “inhibition of apoptosis, dose dependence” value [1] is given as “dose dependent inhibition of apoptosis”, the “effect on proNGF induced neuronal apoptosis (FIG. 1)” value [1] is given as “blockade of proNGF induced neuronal apoptosis” and the “toxicity profile in human” value ([2]; in vivo) is given as “excellent toxicity profiles in human”.
For `CC[C@H](C)C(=O)O[C@H]1C[C@@H](C)C=C2C=C[C@H](C)[C@H](CC[C@@H]3C[C@@H](O)CC(=O)O3)[C@H]21` [Lovastatin], the “inhibition of apoptosis, dose dependence” value [1] is listed as “dose dependent inhibition of apoptosis”, the “toxicity in SCG neuron assay” value [1] is listed as “without toxicity” and the “toxicity profile in human” value ([2]; in vivo) is listed as “excellent toxicity profiles in human”.
In the case of `O=C([O-])[O-].[Li+].[Li+]` [Lithium carbonate], the “concentration at which efficacy is demonstrated” value [1] is reported as 10 µM, the peak serum concentration [5] is reported as 3 mM and the trough serum concentration [5] is reported as 300 µM. The serum concentration ([6]; po) was 0.6 to 0.8 mmol, the major toxicities [6] was “reversible renal impairment and anemia” and the clinical toxicity [7] was “no clinical toxicity”. For the same compound, the “brain concentration relative to serum concentration” value [8] was “approximately half” and the “brain concentration relative to serum concentration” value [9] was “approximately half”.
